These compounds were tested on IL-17A/A (assay: IL-17A/A HEK-Blue cell assay). Details: HEK-Blue, 20 h, IL-17A/A inhibition, HEK-Blue IL-17A reporter cell line, IL17A/A 5 ng/mL, SEAP read at A630, read-out: AA IC50.
Assay type: cell-based
Summary of the method: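 HEK 293 reporter cells expressing IL-17RA, IL-17RC and Act1, stimulated with 5 ng/mL IL17A/A or IL17A/F for 20 h alongside compound (10 μM to 27 pM, 0.1% DMSO). NFκB-driven SEAP in the medium read at A630 with Quanti-Blue; IC50 from 4-parameter fit.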
In the case of `CCn1nccc1C(=O)N[C@H](c1cn2nc(C[C@@H]3C[C@H](C)CNC3=O)c(C3CCOCC3)cc2n1)C1CCC(F)(F)CC1` [Compound 103, N—((1S)-(4,4-difluorocyclohexyl)(6-(((5S)-5-methyl-2-oxopiperidin-3-yl)methyl)-7-(tetrahydro-2H-pyran-4-yl)imidazo[1,2-b]pyridazin-2-yl)methyl)-1-ethyl-1H-pyrazole-5-carboxamide], the IC50 is reported as < 100 nM. With `CCn1nccc1C(=O)N[C@H](c1cn2nc(C[C@H]3C[C@@H](C(F)(F)F)CNC3=O)c(N3CCN4CCOC[C@@H]4C3)cc2n1)C1CCC(F)(F)CC1` [Compound 104, N—((S)-(4,4-difluorocyclohexyl)(7-((S)-hexahydropyrazino[2,1-c][1,4]oxazin-8(1H)-yl)-6-(((3R,5R)-2-oxo-5-(trifluoromethyl)piperidin-3-yl)methyl)imidazo[1,2-b]pyridazin-2-yl)methyl)-1-ethyl-1H-pyrazole-5-carboxamide] the IC50 was < 100 nM. For `CCn1nccc1C(=O)N[C@H](c1cn2nc(C[C@H]3C[C@@H](C(F)(F)F)CNC3=O)c(CN3CCC(F)(F)C3)cc2n1)C1CCC(F)(F)CC1` [Compound 105, N—((S)-(4,4-difluorocyclohexyl)(7-((3,3-difluoropyrrolidin-1-yl)methyl)-6-(((3R,5R)-2-oxo-5-(trifluoromethyl)piperidin-3-yl)methyl)imidazo[1,2-b]pyridazin-2-yl)methyl)-1-ethyl-1H-pyrazole-5-carboxamide], the IC50 was < 100 nM. In the case of `CCn1nccc1C(=O)N[C@H](c1cn2nc(C[C@H]3C[C@@H](C(F)(F)F)CNC3=O)c(CN3CCCC3)cc2n1)C1CCC(F)(F)CC1` [Compound 106, N—((S)-(4,4-difluorocyclohexyl)(6-(((3R,5R)-2-oxo-5-(trifluoromethyl)piperidin-3-yl)methyl)-7-(pyrrolidin-1-ylmethyl)imidazo[1,2-b]pyridazin-2-yl)methyl)-1-ethyl-1H-pyrazole-5-carboxamide], the IC50 is reported as < 100 nM. `CCn1nccc1C(=O)N[C@H](c1cn2nc(C[C@H]3C[C@@H](C(F)(F)F)CNC3=O)c(CN3CCCCC3)cc2n1)C1CCC(F)(F)CC1` [Compound 107, N—((S)-(4,4-difluorocyclohexyl)(6-(((3R,5R)-2-oxo-5-(trifluoromethyl)piperidin-3-yl)methyl)-7-(piperidin-1-ylmethyl)imidazo[1,2-b]pyridazin-2-yl)methyl)-1-ethyl-1H-pyrazole-5-carboxamide] was tested, and the IC50 was < 100 nM. In the case of `CCn1nccc1C(=O)N[C@H](c1cn2nc(C[C@H]3C[C@@H](C(F)(F)F)CNC3=O)c(CN3CCOCC3)cc2n1)C1CCC(F)(F)CC1` [Compound 108, N—((S)-(4,4-difluorocyclohexyl)(7-(morpholinomethyl)-6-(((3R,5R)-2-oxo-5-(trifluoromethyl)piperidin-3-yl)methyl)imidazo[1,2-b]pyridazin-2-yl)methyl)-1-ethyl-1H-pyrazole-5-carboxamide], the IC50 is reported as < 100 nM. `CCn1nccc1C(=O)N[C@H](c1cn2nc(C[C@H]3C[C@@H](C(F)(F)F)CNC3=O)c(CN3CC(F)(F)C3)cc2n1)C1CCC(F)(F)CC1` [Compound 109, N—((S)-(7-((3,3-difluoroazetidin-1-yl)methyl)-6-(((3R,5R)-2-oxo-5-(trifluoromethyl)piperidin-3-yl)methyl)imidazo[1,2-b]pyridazin-2-yl)(4,4-difluorocyclohexyl)methyl)-1-ethyl-1H-pyrazole-5-carboxamide] was tested, and the IC50 was < 100 nM. In the case of `CCn1nccc1C(=O)N[C@H](c1cn2nc(C[C@H]3C[C@@H](C(F)(F)F)CNC3=O)c([C@@H](C)N(C)CC(F)(F)F)cc2n1)C1CCC(F)(F)CC1` [Compound 110, N-((1S)-(4,4-difluorocyclohexyl)(7-(1-(methyl(2,2,2-trifluoroethyl)amino)ethyl)-6-(((3R,5R)-2-oxo-5-(trifluoromethyl)piperidin-3-yl)methyl)imidazo[1,2-b]pyridazin-2-yl)methyl)-1-ethyl-1H-pyrazole-5-carboxamide], the IC50 is reported as < 100 nM. In the case of `CCn1nccc1C(=O)N[C@H](c1cn2nc(C[C@H]3C[C@@H](C(F)(F)F)CNC3=O)c(CN(C)C)cc2n1)C1CCC(F)(F)CC1` [Compound 111, N—((S)-(4,4-difluorocyclohexyl)(7-((dimethylamino)methyl)-6-(((3R,5R)-2-oxo-5-(trifluoromethyl)piperidin-3-yl)methyl)imidazo[1,2-b]pyridazin-2-yl)methyl)-1-ethyl-1H-pyrazole-5-carboxamide], the IC50 is reported as < 100 nM. For `CCn1nccc1C(=O)N[C@H](c1cn2nc(C[C@H]3C[C@@H](C(F)(F)F)CNC3=O)c(CNC)cc2n1)C1CCC(F)(F)CC1` [Compound 112, N—((S)-(4,4-difluorocyclohexyl)(7-((methylamino)methyl)-6-(((3R,5R)-2-oxo-5-(trifluoromethyl)piperidin-3-yl)methyl)imidazo[1,2-b]pyridazin-2-yl)methyl)-1-ethyl-1H-pyrazole-5-carboxamide], the IC50 was < 100 nM. For `CCn1nccc1C(=O)N[C@H](c1cn2nc(C[C@H]3C[C@@H](C(F)(F)F)CNC3=O)c(CN(C)C3CC3)cc2n1)C1CCC(F)(F)CC1` [Compound 113, N—((S)-(7-((cyclopropyl(methyl)amino)methyl)-6-(((3R,5R)-2-oxo-5-(trifluoromethyl)piperidin-3-yl)methyl)imidazo[1,2-b]pyridazin-2-yl)(4,4-difluorocyclohexyl)methyl)-1-ethyl-1H-pyrazole-5-carboxamide], the IC50 was < 100 nM. For `CCn1nccc1C(=O)N[C@H](c1cn2nc(C[C@H]3C[C@@H](C(F)(F)F)CNC3=O)c(CN(C)C3COC3)cc2n1)C1CCC(F)(F)CC1` [Compound 114, N—((S)-(4,4-difluorocyclohexyl)(7-((methyl(oxetan-3-yl)amino)methyl)-6-(((3R,5R)-2-oxo-5-(trifluoromethyl)piperidin-3-yl)methyl)imidazo[1,2-b]pyridazin-2-yl)methyl)-1-ethyl-1H-pyrazole-5-carboxamide], the IC50 was < 100 nM. With `CCn1nccc1C(=O)N[C@H](c1cn2nc(C[C@H]3C[C@@H](C(F)(F)F)CNC3=O)c(CNCC(F)(F)F)cc2n1)C1CCC(F)(F)CC1` [Compound 115, N—((S)-(4,4-difluorocyclohexyl)(6-(((3R,5R)-2-oxo-5-(trifluoromethyl)piperidin-3-yl)methyl)-7-(((2,2,2-trifluoroethyl)amino)methyl)imidazo[1,2-b]pyridazin-2-yl)methyl)-1-ethyl-1H-pyrazole-5-carboxamide] the IC50 was < 100 nM. In the case of `CCn1nccc1C(=O)N[C@H](c1cn2nc(C[C@H]3C[C@@H](C(F)(F)F)CNC3=O)c(CN(C)CC(F)(F)F)cc2n1)C1CCC(F)(F)CC1` [Compound 116, N—((S)-(4,4-difluorocyclohexyl)(7-((methyl(2,2,2-trifluoroethyl)amino)methyl)-6-(((3R,5R)-2-oxo-5-(trifluoromethyl)piperidin-3-yl)methyl)imidazo[1,2-b]pyridazin-2-yl)methyl)-1-ethyl-1H-pyrazole-5-carboxamide], the IC50 is reported as < 100 nM. `CCn1nccc1C(=O)N[C@H](c1cn2nc(C[C@H]3C[C@@H](C(F)(F)F)CNC3=O)c(CN(CC(F)(F)F)C3CC3)cc2n1)C1CCC(F)(F)CC1` [Compound 117, N—((S)-(7-((cyclopropyl(2,2,2-trifluoroethyl)amino)methyl)-6-(((3R,5R)-2-oxo-5-(trifluoromethyl)piperidin-3-yl)methyl)imidazo[1,2-b]pyridazin-2-yl)(4,4-difluorocyclohexyl)methyl)-1-ethyl-/H-pyrazole-5-carboxamide] was tested, and the IC50 was < 100 nM. With `CCn1nccc1C(=O)N[C@H](c1cn2nc(C[C@H]3C[C@@H](C(F)(F)F)CNC3=O)c(C3CCS(=O)(=O)CC3)cc2n1)C1CCC(F)(F)CC1` [Compound 118, N—((S)-(4,4-difluorocyclohexyl)(7-(1,1-dioxidotetrahydro-2H-thiopyran-4-yl)-6-(((3R,5R)-2-oxo-5-(trifluoromethyl)piperidin-3-yl)methyl)imidazo[1,2-b]pyridazin-2-yl)methyl)-1-ethyl-1H-pyrazole-5-carboxamide] the IC50 was < 100 nM.
